Measured values published in PubChem BioAssay AID2060328 (Molecular Pharmacology Branch, DTP, NCI, 2025).
pIC50: −log10 of the molar value.

Tested on: MDA-MB-231 multicell spheroids, viability (%T/C)
Assay: Anticancer human tumor MDA-MB-231 cell line growth inhibition [IpAb];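 also: viability read after seven days of drug exposure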;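 as to viability, T/C: 100% = DMSO vehicle control viability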
Settings: for pIC50: curve of first compound; for viability, T/C: stronger effect = lower value
How it was run: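 Spheroids of 60% malignant cells, 25% HUVEC and 15% MSC were exposed to targeted agents combined with ipatasertib or abemaciclib. Doses started at or near clinical Cmax (10 microM when unknown) and fell in half-log steps.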

[1] = second compound 0.01 µM, first compound 0.0316 µM
[2] = second compound 0.01 µM, first compound 0.1 µM
[3] = second compound 0.0316 µM, first compound 0.0316 µM
[4] = second compound 0.0316 µM, first compound 0.1 µM
[5] = second compound 0.1 µM, first compound 0.0316 µM
[6] = second compound 0.1 µM, first compound 0.1 µM
[7] = second compound 0.316 µM, first compound 0.0316 µM
[8] = second compound 0.316 µM, first compound 0.1 µM
[9] = second compound 1 µM, first compound 0.0316 µM
[10] = second compound 1 µM, first compound 0.1 µM

CC(C)n1nc(-c2ccc3oc(N)nc3c2)c2c(N)ncnc21 + CCN1CCN(Cc2ccc(Nc3ncc(F)c(-c4cc(F)c5nc(C)n(C(C)C)c5c4)n3)nc2)CC1
pIC50 (second compound 0.01 µM): 8.12
pIC50 (second compound 0.0316 µM): 8.57
pIC50 (second compound 0.1 µM): 9.18
pIC50 (second compound 0.316 µM): > 9.50
pIC50 (second compound 1 µM): > 9.50
viability, T/C (second compound 0.01 µM, first compound 0.000316 µM): 90.3%
viability, T/C (second compound 0.01 µM, first compound 0.001 µM): 85.6%
viability, T/C (second compound 0.01 µM, first compound 0.00316 µM): 65.5%
viability, T/C (second compound 0.01 µM, first compound 0.01 µM): 45.9%
viability, T/C [1]: 34.6%
viability, T/C [2]: 32.3%
viability, T/C (second compound 0.0316 µM, first compound 0.000316 µM): 73.7%
viability, T/C (second compound 0.0316 µM, first compound 0.001 µM): 64.5%
viability, T/C (second compound 0.0316 µM, first compound 0.00316 µM): 48.2%
viability, T/C (second compound 0.0316 µM, first compound 0.01 µM): 33.1%
viability, T/C [3]: 28.8%
viability, T/C [4]: 26.8%
viability, T/C (second compound 0.1 µM, first compound 0.000316 µM): 55.1%
viability, T/C (second compound 0.1 µM, first compound 0.001 µM): 47%
viability, T/C (second compound 0.1 µM, first compound 0.00316 µM): 37.4%
viability, T/C (second compound 0.1 µM, first compound 0.01 µM): 30.2%
viability, T/C [5]: 27.6%
viability, T/C [6]: 27.6%
viability, T/C (second compound 0.316 µM, first compound 0.000316 µM): 41.7%
viability, T/C (second compound 0.316 µM, first compound 0.001 µM): 38%
viability, T/C (second compound 0.316 µM, first compound 0.00316 µM): 31.4%
viability, T/C (second compound 0.316 µM, first compound 0.01 µM): 30.1%
viability, T/C [7]: 29.6%
viability, T/C [8]: 29.3%
viability, T/C (second compound 1 µM, first compound 0.000316 µM): 47.1%
viability, T/C (second compound 1 µM, first compound 0.001 µM): 45%
viability, T/C (second compound 1 µM, first compound 0.00316 µM): 39.8%
viability, T/C (second compound 1 µM, first compound 0.01 µM): 45.4%
viability, T/C [9]: 47.4%
viability, T/C [10]: 49.8%

CCCS(=O)(=O)Nc1ccc(F)c(C(=O)c2c[nH]c3ncc(-c4ccc(Cl)cc4)cc23)c1F + CCN1CCN(Cc2ccc(Nc3ncc(F)c(-c4cc(F)c5nc(C)n(C(C)C)c5c4)n3)nc2)CC1
pIC50 (second compound 0.01 µM): 5.16
pIC50 (second compound 0.0316 µM): 5.33
pIC50 (second compound 0.1 µM): 5.54
pIC50 (second compound 0.316 µM): 6.05
pIC50 (second compound 1 µM): 6.26
viability, T/C [1]: 105%
viability, T/C [2]: 104%
viability, T/C (second compound 0.01 µM, first compound 0.316 µM): 110%
viability, T/C (second compound 0.01 µM, first compound 1 µM): 93.9%
viability, T/C (second compound 0.01 µM, first compound 3.16 µM): 70.5%
viability, T/C (second compound 0.01 µM, first compound 10 µM): 40.1%
viability, T/C [3]: 82.9%
viability, T/C [4]: 87.4%
viability, T/C (second compound 0.0316 µM, first compound 0.316 µM): 86.4%
viability, T/C (second compound 0.0316 µM, first compound 1 µM): 80.2%
viability, T/C (second compound 0.0316 µM, first compound 3.16 µM): 57.6%
viability, T/C (second compound 0.0316 µM, first compound 10 µM): 34.9%
viability, T/C [5]: 70.5%
viability, T/C [6]: 66.4%
viability, T/C (second compound 0.1 µM, first compound 0.316 µM): 66.6%
viability, T/C (second compound 0.1 µM, first compound 1 µM): 62.8%
viability, T/C (second compound 0.1 µM, first compound 3.16 µM): 48.8%
viability, T/C (second compound 0.1 µM, first compound 10 µM): 32.9%
viability, T/C [7]: 52.8%
viability, T/C [8]: 53.5%
viability, T/C (second compound 0.316 µM, first compound 0.316 µM): 51%
viability, T/C (second compound 0.316 µM, first compound 1 µM): 47.8%
viability, T/C (second compound 0.316 µM, first compound 3.16 µM): 44.3%
viability, T/C (second compound 0.316 µM, first compound 10 µM): 23.4%
viability, T/C [9]: 51.9%
viability, T/C [10]: 55%
viability, T/C (second compound 1 µM, first compound 0.316 µM): 53.1%
viability, T/C (second compound 1 µM, first compound 1 µM): 45.6%
viability, T/C (second compound 1 µM, first compound 3.16 µM): 43.8%
viability, T/C (second compound 1 µM, first compound 10 µM): 32.6%
